Source: patent US20260048101A1, “GLP-1R ANTAGONISM TO IMPROVE NUTRITION FOLLOWING GASTROINTESTINAL SURGERY” (Amylyx Pharmaceuticals, Inc., priority 2023, published 2026)

Tested on: Patient 2 (total gastrectomy, severe hypoglycemia events)
Assay: Patient 2 case history: prior pharmacotherapy
Format: in vivo, human
Conditions: Patient 2, before trial participation
Text: The patient had been placed on a liquid diet for 6 weeks after surgery and had initially lost 20 lbs. but otherwise fared well in the immediate postoperative period. […] The meals caused pain, gastrointestinal symptoms, and frequent diarrhea (per patient report). The patient also complained of weakness, lethargy and general feeling of despondency. […] They began to experience severe hypoglycemia events, including multiple episodes of loss of consciousness with requirement for emergency medical assistance. […] The patient was referred for trial participation.

For C[C@H]1O[C@H](O[C@H]2[C@H](O)[C@@H](O)[C@@H](O[C@H]3[C@H](O)[C@@H](O)C(O)O[C@@H]3CO)O[C@@H]2CO)[C@H](O)[C@@H](O)[C@@H]1N[C@H]1C=C(CO)[C@@H](O)[C@H](O)[C@H]1O (stereo partly shown) [acarbose], the gastrointestinal symptoms was “worsening of gastrointestinal symptoms”.
